The source of these data is patent publication US8895599B2, “Lipoprotein lipase-activating compositions comprising benzene derivates” (Otsuka Pharmaceutical Factory, Inc., priority 2008, dated 2014).

The nature of series [1]: Therapeutical effect on olive oil-induced triglyceride hyperlipidemia models. To be noted: once a day for one week, SD rats, 2 h after olive oil. Type of series: in vivo. The method, then:
Test of Therapeutical Effect on Olive Oil-Induced Triglyceride Hyperlipidemia Models
To conduct this test, 6-week-old SD rats (purchased from Charles River Japan) were used.
According to the body weight of the test rats when they were 5 weeks old, the test rats were divided into test groups and a control group with 6 rats per group.
A predetermined amount of each compound prepared in the Examples was measured and placed in an agate mortar. While 5% aqueous gum arabic solution was gradually introduced to the mortar, the compound was uniformly ground and suspended. Test samples were prepared by further adding 5% aqueous gum arabic solution gradually. Subsequently, these test samples were subjected to ultrasonic washing for 10 minutes to homogenize. Test samples were prepared as and when necessary.
The rats of the test groups were orally administered with the compounds of the invention such that rats received the compounds in an amount of 10, 30, or 100 mg/kg. The compounds of the invention were formulated as 5% gum arabic suspensions as described above.
The rats of the control group were orally administered with 5% aqueous gum arabic solution (not containing the compounds of the invention) in an amount of 5 ml/kg body weight. Administration was conducted once a day continuously for one week at a specific time of day after the rats reached 6 weeks of age. This test was performed under non-fasting conditions (rats had free access to feed and water), and the rats were fasted after the final administration of the compounds or 5% aqueous gum arabic solution.
Two hours after the final administration, olive oil was orally administered to the rats from both groups in an amount of 3 ml/kg body weight.
Two hours after the olive oil administration, blood was collected from the abdominal aorta of the rats of the respective groups using a heparinized syringe. The plasma was centrifugally separated from the blood at a temperature of 4° C., and the triglyceride level of the plasma was measured. A Hitachi 7170 automatic analyzer was used as the measuring instrument. Using the values measured from the test groups and control group, the decrease (%) in plasma triglyceride level was calculated according to the following equation: Decrease (%) in plasma triglyceride concentration=(1−E/C)×100 wherein E represents the average plasma triglyceride level in each test group; and C represents the average plasma triglyceride level in the control group.

Series [2] can be described thus: Anti-obesity test using Zucker fatty rats. Type of series: in vivo. Particulars: 100 mg/kg oral, once a day over 4 weeks, relative to control group. The source says: Anti-Obesity Test Using Zucker Fatty Rats
Zucker fatty rats are obese rats discovered by Zucker et al., in 1961 as mutants among 13 M rats, which are a hybrid between 13C and M rats. These rats (fa/fa) start to appear distinctly obese from normal broods around the age of 3 weeks. As they age, the weight difference between the fatty rats and normal rats increases. Zucker fatty rats are currently kept by a variety of organizations as simple obesity models, and are readily obtainable.
This test was performed using this rat model to evaluate the anti-obesity action of the compounds of the invention. The preparation method of test samples and the test procedures are described below:
The test samples were prepared in the same manner as in Test Example 2.
Zucker fatty rats and lean rats (both from Charles River Japan) were purchased at the age of 5 weeks. They were divided into groups (10 rats per group) according to body weight when they reached 6 weeks old. After acclimatization, the administration of test samples was initiated when the rats reached 8 weeks old. Test samples were orally administered using an oral gavage so that the compounds of the invention contained in the test samples were given in an amount of 100 mg/kg body weight (test sample dosage: 5 ml/kg body weight). The test samples were administered once a day over 4 weeks at a specific time of day.
As a control, a group of rats were administered with the same amount of 5% aqueous gum arabic solution (5 ml/kg body weight) instead of the test samples.
The rats of all groups were weighed on the last day of administration. The average body weight of the rats of each test group was compared with the average body weight (standard weight) of the rats of the control group to obtain the weight variations (differences). The weight differences were expressed as percentages in relation to the standard weight. The values thus calculated are referred to as “weight change %”. When a weight difference is negative relative to the standard weight, weight change % is shown with “−” (minus).
During the test period, the rats of the respective groups had free access to rat feed (“CRF-1”, manufactured by Oriental Yeast, Co., Ltd.) and water (tap water).

A further series has as its system LPL. As to the kind of experiment: Test for LPL activity-increasing effect in normal rats (skeletal muscle LPL activity). Particulars: every day for 1 week, SD rats, soleus muscle, 4 h after administration. Type of series: in vivo. How it is done:
Test for LPL Activity-Increasing Effect in Normal Rats
6-week-old SD rats (purchased from Charles River Japan) were used as subjects. The rats were divided into groups according to body weight at the age of 5 weeks. The rats in each test group were orally administered with a 5% gum arabic suspension in an amount of 5 ml/kg of body weight, the suspension containing the test compound of the invention in such an amount that the dose of the compound of the invention became 30 mg/kg of body weight in one group and 100 mg/kg of body weight in another group. The rats in a control group were orally administered with a 5% gum arabic suspension (not containing the test compound of the invention) in an amount of 5 ml/kg of body weight. Each sample suspension was orally administered every day at a specific time of day for 1 week starting when the rats reached the age of 6 weeks.
Four hours after the administration of the sample suspension, skeletal muscle tissues of the rats were collected, then freeze-clamped and stored under liquid nitrogen. LPL activity in the skeletal muscle tissues was measured by the following method.
The soleus muscle was homogenized in a chilled solution of 0.05 mol/L NH4OH—NH4Cl buffer (pH 8.5) containing 0.5 U/mL heparin at 1 mL/100 mg of tissue wet weight. After standing on ice for 60 min with vigorous mixing at intervals of 15 min, the homogenate was centrifuged at 3000 rpm and 4° C. for 10 min and the supernatant was separated.
The substrate solution was prepared by mixing 2 μCi of glycerol tri[1-^14C]oleate, 0.133 g of unlabeled triolein, 0.9 mL of 1% Triton X-100, and 0.9 mL of 4% bovine serum albumin. in 0.2 mol/L Tris-HCl buffer (pH 8.6) and 10.2 mL of 0.2 mol/L Tris-HCl buffer (pH 8.6). The mixture was emulsified by sonication on ice for 3 min.
In a glass test tube, 0.1 mL of the tissue extract, 0.05 mL of heat-inactivated rat serum and 0.15 mL of 4% bovine serum albumin in 0.2 mol/L Tris-HCl buffer (pH 7.4) were mixed. Enzyme reaction was started by adding 0.2 mL of the substrate solution and was carried out for 30 min. at 37° C.
The reaction was stopped by addition of 2 mL of 1.5 mol/L H2SO4/2-propanol (1:40, v/v), and 1 mL of distilled water and 3 mL of hexane were added into the test tube. After vigorously shaking for 10 min. at room temperature, the test tube was centrifuged for 10 min. at 3000 rpm.
The upper layer (3.5 mL) was collected in a new test tube and mixed with 1 mL of 0.1 mol/L KOH.
The test tube was vigorously shaken for 10 min. at room temperature and then centrifuged for 10 min. at 3000 rpm.
After removing the upper layer, 1 mL of the lower layer (water phase) was transferred into a vial for counting, neutralized with 50 μL of 1.3 mol/L HCl and mixed with 4 mL of scintillator. The radioactivity was measured using a liquid scintillation counter.
The LPL activity increase (%) was calculated from the measured values of LPL activity in the control group and test groups according to the following formula: LPL activity increase (%)=(Test group average value)/(Control group average value)×100−100

The next series deals with human LPL mRNA. In words: Test for increase in LPL mRNA expression (luciferase assay, HTB-92/p387/p383 cell line). Format: cell-based. To be noted: 120 h, HTB-92/p387/p383 cells, 5 days. The source says:
Pharmacological Test 1 Test for Increase in LPL mRNA Expression
A luciferase assay was employed to simply and quickly detect an increase in human LPL mRNA. The principle of the assay is as follows:
Luciferase emits light when reacted with luciferine (substrate). The expression of LPL mRNA is controlled by 5′-UTR and 3′-UTR (promoter regions) of the LPL gene. By introducing the promoter regions of the LPL gene into a commercially available plasmid (for example, that produced by Clonetics Corp.) to produce a plasmid (reporter plasmid) that stably expresses luciferase in human cells, such a plasmid expresses luciferase only under conditions in which LPL mRNA can increase. Therefore, when the substrate is introduced to the expression system and the amount of luciferase expression (luciferase activity) is quantified as the extent of chemiluminescence, the amount of LPL mRNA expression can be estimated.
The test herein was performed as follows: Using a plasmid for the luciferase assay manufactured by Clontech, wherein human LPL 5′-UTR (Enerback, S., et al., Mol. Cell. Biol. 12 (10) (1992): 4622-4633) and 3′-UTR (Wion, K. L., et al., Science 235 (1987): 4796, 1638-1641) had been inserted, human-derived liposarcoma cell line SW872 (ATCC Accession No. HTB-92) was transformed to prepare an HTB-92/p387/p383 cell line, which stably expresses luciferase.
This HTB-92/p387/p383 cell line was introduced into a 225 cm^2 culture flask furnished with a culture medium and cultured at 37° C. in the absence of CO2 until reaching confluence. Leibovitz's L-15 culture medium (containing 10% FBS, 1% GlutaMaxII, 10 μg/ml streptomycin, 1 μg/ml puromycin, 250 μg/ml hygromycin B) was used as the culture medium. After reaching confluence, the cells were collected, plated on 384-well plates to have 20000 cells/well, and cultured with 50 μl/well of the culture medium under the same conditions as above (37° C., absence of CO2). After 3 days of culturing, the culture medium was replaced by 50 μl/well phenol-red-free DMEM (containing 10% FBS, 1% GlutaMax, 10 U/ml penicillin, 10 μg/ml streptomycin, 1 μg/ml puromycin, 250 μg/ml hygromycin, 1 μM dexamethasone, 0.5 μM IBMX; differentiation medium), and the cells were cultured for 5 more days at 37° C. in the presence of CO2 to differentiate.
Furthermore, the culture medium was replaced by a 50 μl/well medium containing a compound of the invention (compound prepared in an Example) as a test substance wherein the compound had been conditioned with DMSO to a specific concentration selected from 10^−4 M to 3×10^−10M. The cells were cultured for 5 days at 37° C. in the presence of CO2.
After 5 days of culturing, a luciferase substrate solution (manufactured by Promega Corporation) was introduced to each well in an amount of 30 μl/well. The cells were left to stand 10 minutes at room temperature, and luciferase activities were measured by a luminometer (a microplate scintilltion counter; The Wallac MicroBeta Trilux, manufactured by Perkin Elmer, Inc.).
Cells that had been cultured and differentiated in a differentiation medium prepared by adding 0.1% DMSO to the above-mentioned DMEM medium (differentiation medium) not containing phenol red were used as a control (i.e., cultured and differentiated for 5 days and then stimulated for 5 days). The luciferase activity of these control cells were measured as above. The EC50 value (the concentration of test substance that can increase the amount of LPL mRNA expression over the control by 50%, unit: M) was calculated based on the straight line obtained by plotting the results of the tests performed using the test substances at varying concentrations. The maximum induction (Max. Ind. values) was calculated according to the following equation: Max. Ind. Value=Lt/Lc wherein Lt represents the maximum luciferase activity occurred in response to test substance stimulation; and Lc represents the value indicating the luciferase activity of the control.

As to `COc1cc(-c2c[nH]c(-c3ccc(C(F)(F)F)cc3)n2)ccc1OCc1ccccc1.Cl` [Example 95, 4-(4-benzyloxy-3-methoxyphenyl)-2-(4-trifluoromethylphenyl)imidazole], the melting point lay in the range of 247 to 249 °C. For the same compound, the “Decrease in plasma triglyceride level (%)” value (“Decrease … (%)” below) in series [1] (10 mg/kg oral) is on record as 28%. Also, the “Decrease … (%)” value in series [1] (30 mg/kg oral) is listed as 65%. Besides, the “Decrease … (%)” value in series [1] (100 mg/kg oral) turned out to be 81%. The “Weight Change (%)” value in series [2] is −15%. Besides, the “Increase of skeletal muscle LPL activity compared to control (%)” value with LPL (30 mg/kg oral) is 13%. For the same compound, the “Increase of skeletal muscle LPL activity compared to control (%)” value in the series on LPL (100 mg/kg oral) is reported as 25%.
`COc1cc(-c2cn3ccccc3n2)ccc1OCc1ccccc1` [Example 1, 2-(4-benzyloxy-3-methoxyphenyl)imidazo[1,2-a]pyridine] came in with a melting point of 128 to 129.5 °C. The maximal fold induction in the series on human LPL mRNA (Max. Ind. Value=Lt/Lc, maximum luciferase activity over control) was found to be 3. The compound also came in with an EC50 with human LPL mRNA (concentration that increases LPL mRNA expression over the control by 50%) of 6.3 µM. Further, the “Decrease … (%)” value in series [1] (10 mg/kg oral) came out at 26%. The “Decrease … (%)” value in series [1] (30 mg/kg oral) is 50%. For the same compound, the “Decrease … (%)” value in series [1] (100 mg/kg oral) is 76%. Also, the “Weight Change (%)” value in series [2] is on record as −8%.
